Experimental data taken from patent publication US7816393B2, “Isoindoline compounds and methods of their use” (Celgene Corporation, priority 2008, dated 2010).

`NC(=O)C(CCC(=O)O)N1Cc2c(N)cccc2C1=O` (stereo not shown) [Example 5.2, 4-(4-Amino-1-oxo-1,3-dihydro-isoindol-2-yl)-4-carbamoyl-butyric acid] showed a melting point of 334 to 336 °C.
